This is an account of results in publication PMC10175918 (Communications Biology, 2023).

Like-named read-outs stand apart in the source and are kept apart here.

Common to all, as to assay: TGFα-shedding assay-based GPCR screening with chimeric Gα subunit proteins
Assay type in all cases: cell-based

Experiment [1] deals with T1, 348 GPCRs (Homo sapiens, UniProt O00254).
T1 construct: expressed in transfected cells; host or cells: HEK293A
T1 sequence (O00254 22-374): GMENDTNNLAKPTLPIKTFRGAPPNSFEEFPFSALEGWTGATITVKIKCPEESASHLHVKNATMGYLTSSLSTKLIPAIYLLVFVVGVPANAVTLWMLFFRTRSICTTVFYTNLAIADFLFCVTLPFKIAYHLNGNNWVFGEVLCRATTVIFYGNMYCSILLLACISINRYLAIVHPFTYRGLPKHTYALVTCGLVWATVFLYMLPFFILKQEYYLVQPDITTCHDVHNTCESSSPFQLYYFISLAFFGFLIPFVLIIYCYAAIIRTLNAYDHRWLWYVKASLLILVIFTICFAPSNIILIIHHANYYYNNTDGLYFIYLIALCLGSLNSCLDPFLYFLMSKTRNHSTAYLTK
Particulars: 10µM, Favipiravir 100μM.

Experiment [2] addresses T2, 348 GPCRs (Homo sapiens, UniProt P08172).
T2 sequence (P08172 1-466): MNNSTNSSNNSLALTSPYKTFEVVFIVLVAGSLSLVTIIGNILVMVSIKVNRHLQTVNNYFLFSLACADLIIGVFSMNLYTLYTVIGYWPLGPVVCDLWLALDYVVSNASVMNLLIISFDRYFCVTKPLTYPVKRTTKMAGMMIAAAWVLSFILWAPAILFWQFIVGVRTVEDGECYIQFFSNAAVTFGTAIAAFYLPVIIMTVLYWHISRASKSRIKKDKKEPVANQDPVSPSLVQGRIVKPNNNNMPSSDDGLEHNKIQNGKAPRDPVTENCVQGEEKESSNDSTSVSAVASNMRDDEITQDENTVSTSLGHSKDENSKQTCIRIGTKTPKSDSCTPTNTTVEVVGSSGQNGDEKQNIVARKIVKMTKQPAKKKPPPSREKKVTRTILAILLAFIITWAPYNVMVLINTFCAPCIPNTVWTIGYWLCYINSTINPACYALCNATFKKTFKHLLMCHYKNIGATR

The target of experiment [3] is T3, 348 GPCRs (Homo sapiens, UniProt P21917).
T3 sequence (P21917 1-419): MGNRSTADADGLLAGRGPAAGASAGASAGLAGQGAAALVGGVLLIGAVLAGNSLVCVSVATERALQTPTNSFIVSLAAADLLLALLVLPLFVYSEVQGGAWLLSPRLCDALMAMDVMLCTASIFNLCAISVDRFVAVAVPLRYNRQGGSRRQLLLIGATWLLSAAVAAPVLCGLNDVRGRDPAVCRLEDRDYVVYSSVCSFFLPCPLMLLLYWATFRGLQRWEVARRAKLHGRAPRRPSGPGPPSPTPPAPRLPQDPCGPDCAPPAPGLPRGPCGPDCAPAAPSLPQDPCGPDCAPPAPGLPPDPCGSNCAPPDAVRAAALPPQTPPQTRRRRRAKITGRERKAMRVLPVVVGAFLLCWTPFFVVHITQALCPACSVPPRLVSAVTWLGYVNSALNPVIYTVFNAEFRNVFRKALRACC
Particulars: 10µM, Favipiravir 100μM.

Experiment [4] deals with T4, 348 GPCRs (Homo sapiens, UniProt P32239).
T4 sequence (P32239 1-447): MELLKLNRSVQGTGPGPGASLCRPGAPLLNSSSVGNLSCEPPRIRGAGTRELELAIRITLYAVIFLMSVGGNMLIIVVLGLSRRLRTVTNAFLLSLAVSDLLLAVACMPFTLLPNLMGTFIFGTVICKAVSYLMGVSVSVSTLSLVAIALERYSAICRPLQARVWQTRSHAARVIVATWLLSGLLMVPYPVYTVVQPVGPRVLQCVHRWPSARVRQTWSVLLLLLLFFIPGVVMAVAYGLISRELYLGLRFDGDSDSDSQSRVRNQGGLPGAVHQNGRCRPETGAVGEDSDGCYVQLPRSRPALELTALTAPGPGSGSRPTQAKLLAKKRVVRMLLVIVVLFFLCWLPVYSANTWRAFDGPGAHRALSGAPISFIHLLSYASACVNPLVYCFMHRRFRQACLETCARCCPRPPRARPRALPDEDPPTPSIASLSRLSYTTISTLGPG
Particulars: 10µM, Favipiravir 100μM.

In experiment [5] the target is T5, 348 GPCRs (Homo sapiens, UniProt P43657).
T5 construct: expressed in transfected cells; host or cells: HEK293A
T5 sequence (P43657 1-344): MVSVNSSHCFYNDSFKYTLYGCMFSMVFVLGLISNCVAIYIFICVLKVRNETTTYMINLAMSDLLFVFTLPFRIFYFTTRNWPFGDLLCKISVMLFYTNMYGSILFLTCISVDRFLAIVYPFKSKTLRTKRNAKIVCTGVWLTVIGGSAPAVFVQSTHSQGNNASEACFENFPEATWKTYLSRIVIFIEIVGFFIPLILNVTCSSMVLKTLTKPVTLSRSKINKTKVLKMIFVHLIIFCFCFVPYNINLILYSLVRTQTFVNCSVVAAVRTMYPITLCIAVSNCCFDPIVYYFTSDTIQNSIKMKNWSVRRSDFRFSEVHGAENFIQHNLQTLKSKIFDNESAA
Particulars: 10µM, Favipiravir 100μM.

The target of experiment [6] is T6, 348 GPCRs (Homo sapiens, UniProt P47871).
T6 construct: expressed in transfected cells; host or cells: HEK293A
T6 sequence (P47871 26-477): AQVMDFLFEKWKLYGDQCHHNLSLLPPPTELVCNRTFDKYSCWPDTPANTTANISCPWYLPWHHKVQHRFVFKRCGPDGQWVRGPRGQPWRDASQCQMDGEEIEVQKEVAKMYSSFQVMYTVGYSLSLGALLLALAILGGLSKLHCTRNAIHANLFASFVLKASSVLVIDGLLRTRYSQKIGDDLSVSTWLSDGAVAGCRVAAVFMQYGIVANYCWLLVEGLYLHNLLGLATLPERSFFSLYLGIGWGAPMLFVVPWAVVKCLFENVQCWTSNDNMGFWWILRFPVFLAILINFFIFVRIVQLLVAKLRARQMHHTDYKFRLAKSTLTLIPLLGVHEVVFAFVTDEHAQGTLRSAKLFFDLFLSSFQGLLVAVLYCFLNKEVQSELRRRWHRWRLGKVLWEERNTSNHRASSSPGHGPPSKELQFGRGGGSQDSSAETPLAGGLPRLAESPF
Particulars: 10µM, Favipiravir 100μM.

The target of experiment [7] is T7, 348 GPCRs (Homo sapiens, UniProt Q15722).
T7 construct: expressed in transfected cells; host or cells: HEK293A
T7 sequence (Q15722 whole entry): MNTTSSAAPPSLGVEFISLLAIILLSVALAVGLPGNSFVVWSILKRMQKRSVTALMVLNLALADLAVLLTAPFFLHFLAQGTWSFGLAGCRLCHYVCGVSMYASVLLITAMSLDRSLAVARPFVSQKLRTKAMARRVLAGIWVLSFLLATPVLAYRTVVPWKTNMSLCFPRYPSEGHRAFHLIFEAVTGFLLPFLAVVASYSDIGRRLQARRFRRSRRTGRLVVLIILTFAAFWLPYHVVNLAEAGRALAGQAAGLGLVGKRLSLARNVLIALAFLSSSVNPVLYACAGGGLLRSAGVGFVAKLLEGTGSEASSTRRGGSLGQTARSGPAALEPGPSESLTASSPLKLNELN
Particulars: 10µM, Favipiravir 100μM.

Experiment [8] deals with T8, 348 GPCRs (Homo sapiens, UniProt Q8TDT2).
T8 construct: expressed in transfected cells; host or cells: HEK293A
T8 sequence (Q8TDT2 whole entry): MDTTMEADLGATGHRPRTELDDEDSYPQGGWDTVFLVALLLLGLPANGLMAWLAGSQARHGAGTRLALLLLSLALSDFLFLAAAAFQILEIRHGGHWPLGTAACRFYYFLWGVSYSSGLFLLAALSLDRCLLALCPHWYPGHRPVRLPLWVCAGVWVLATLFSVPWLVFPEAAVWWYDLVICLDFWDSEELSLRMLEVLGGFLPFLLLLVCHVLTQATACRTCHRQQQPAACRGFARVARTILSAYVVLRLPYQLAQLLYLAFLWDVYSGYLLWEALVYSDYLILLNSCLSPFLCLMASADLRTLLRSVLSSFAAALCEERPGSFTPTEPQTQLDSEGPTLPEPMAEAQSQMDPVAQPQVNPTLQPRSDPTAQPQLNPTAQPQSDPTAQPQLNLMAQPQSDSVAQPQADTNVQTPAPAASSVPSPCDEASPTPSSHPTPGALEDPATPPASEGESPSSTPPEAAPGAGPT
Particulars: 10µM, Favipiravir 100μM.

Experiment [9] addresses T9, 348 GPCRs (Homo sapiens, UniProt Q9GZQ4).
T9 construct: expressed in transfected cells; host or cells: HEK293A
Particulars: 10µM, Favipiravir 100μM.

Setting [10] is: F2RL2 (coagulation factor II (thrombin) receptor-like 2), read-out: % GPCR activation compared to TPA.
[11] abbreviates: GPCR M2 (Muscarinic acetylcholine receptor M2), read-out: % GPCR activation compared to TPA.
[12] abbreviates: D4 (dopamine receptor D4), read-out: % GPCR activation compared to TPA.
[13] abbreviates: CCKBR (cholecystokinin B receptor), read-out: % GPCR activation compared to TPA.
[14] abbreviates: LPAR6 (lysophosphatidic acid receptor 6), read-out: % GPCR activation compared to TPA.
The mark [15] stands for this setting: GCGR (glucagon receptor), read-out: % GPCR activation compared to TPA.
The mark [16] stands for this setting: LTB4R (leukotriene B4 receptor), read-out: % GPCR activation compared to TPA.
Where [17] appears, read: GPR152 (G Protein-Coupled Receptor 152), read-out: % GPCR activation compared to TPA.
The mark [18] stands for this setting: NMUR2 (neuromedin U receptor 2), read-out: % GPCR activation compared to TPA.
Setting [19] is: read-out: % GPCR activation compared to TPA, F2RL2 (coagulation factor II (thrombin) receptor-like 2).
The mark [20] stands for this setting: read-out: % GPCR activation compared to TPA, GPCR M2 (Muscarinic acetylcholine receptor M2).
The mark [21] stands for this setting: read-out: % GPCR activation compared to TPA, D4 (dopamine receptor D4).
Where [22] appears, read: read-out: % GPCR activation compared to TPA, CCKBR (cholecystokinin B receptor).
The mark [23] stands for this setting: read-out: % GPCR activation compared to TPA, LPAR6 (lysophosphatidic acid receptor 6).
Setting [24] is: read-out: % GPCR activation compared to TPA, GCGR (glucagon receptor).
[25] abbreviates: read-out: % GPCR activation compared to TPA, LTB4R (leukotriene B4 receptor).
Setting [26] is: read-out: % GPCR activation compared to TPA, GPR152 (G Protein-Coupled Receptor 152).
[27] abbreviates: read-out: % GPCR activation compared to TPA, NMUR2 (neuromedin U receptor 2).

T9 sequence (Q9GZQ4 whole entry): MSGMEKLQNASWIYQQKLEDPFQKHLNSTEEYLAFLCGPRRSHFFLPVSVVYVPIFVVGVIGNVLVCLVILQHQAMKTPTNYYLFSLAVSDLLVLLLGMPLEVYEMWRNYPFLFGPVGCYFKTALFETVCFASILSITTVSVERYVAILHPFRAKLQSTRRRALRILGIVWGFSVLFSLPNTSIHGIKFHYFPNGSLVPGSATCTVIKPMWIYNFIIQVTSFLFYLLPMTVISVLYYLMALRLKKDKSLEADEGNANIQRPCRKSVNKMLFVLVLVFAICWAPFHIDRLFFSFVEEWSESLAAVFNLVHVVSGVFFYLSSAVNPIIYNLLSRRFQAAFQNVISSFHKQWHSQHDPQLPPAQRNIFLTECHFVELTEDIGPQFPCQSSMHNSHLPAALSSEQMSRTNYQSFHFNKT

As for `CC(C)C(=O)OC[C@H]1O[C@@H](n2ccc(NO)nc2=O)[C@H](O)[C@@H]1O` [molnupiravir], the activation at 10 µM at 348 GPCRs [1] (setting [10]) was -1.18%; on 348 GPCRs [2] (setting [11]) it was 0.695%; at 348 GPCRs [5] (setting [14]) it was -2.83%; at 348 GPCRs [7] (setting [16]), -0.697%; on 348 GPCRs [8] (setting [17]), -1.29%; on 348 GPCRs [9] (setting [18]), -2.66%. The activation at 100 µM at 348 GPCRs [3] (setting [12]) was -1.43%; at 348 GPCRs [4] (setting [13]), -2.83%; on 348 GPCRs [6] (setting [15]), 0.495%.
As to `CC(C)OC(=O)[C@H](C)N[P@](=O)(OC[C@H]1O[C@@H](n2ccc(=O)[nH]c2=O)[C@](C)(F)[C@@H]1O)Oc1ccccc1` [sofosbuvir], the activation at 10 µM at 348 GPCRs [1] (setting [19]) was 1.05%; at 348 GPCRs [2] (setting [20]) it was 1.35%; at 348 GPCRs [5] (setting [23]), 0.0867%; at 348 GPCRs [7] (setting [25]), 0.62%; on 348 GPCRs [8] (setting [26]), 1.86%; on 348 GPCRs [9] (setting [27]), -4.3%. The activation at 100 µM on 348 GPCRs [3] (setting [21]) was -2.21%; on 348 GPCRs [4] (setting [22]), -2.44%; on 348 GPCRs [6] (setting [24]), -0.806%.
`N#C[C@@]1(c2ccc3c(N)ncnn23)O[C@H](CO)[C@@H](O)[C@H]1O` [GS441524]: the activation at 10 µM on 348 GPCRs [1] (setting [10]) was -2.64%; at 348 GPCRs [2] (setting [11]), 4.87%; at 348 GPCRs [5] (setting [14]), -2.57%; at 348 GPCRs [7] (setting [16]) it was 0.849%; on 348 GPCRs [8] (setting [17]), -0.232%; at 348 GPCRs [9] (setting [18]), 2.73%. The activation at 100 µM on 348 GPCRs [3] (setting [12]) amounted to 3.32%; on 348 GPCRs [4] (setting [13]), 6.14%; on 348 GPCRs [6] (setting [15]), 0.277%.
On to `NC(=O)c1nc(F)cnc1O` [favipiravir, 6-fluoro-3-hydroxy-2-pyrazinecarboxamide], for which the activation at 10 µM on 348 GPCRs [1] (setting [10]) is -0.958%; at 348 GPCRs [5] (setting [14]), -2.1%; at 348 GPCRs [7] (setting [16]) it was -0.299%; on 348 GPCRs [8] (setting [17]) it was -0.401%; on 348 GPCRs [9] (setting [18]), -2.41%. Moreover, the activation at 100 µM is 2.32% at 348 GPCRs [2] (GPCR M2 (Muscarinic acetylcholine receptor M2), 100μM, read-out: % GPCR activation compared to TPA); 2.6% at 348 GPCRs [3] (setting [12]); 4.12% at 348 GPCRs [4] (setting [13]); 2.23% on 348 GPCRs [6] (setting [15]).
Regarding `CCC(CC)COC(=O)[C@H](C)N[P@](=O)(OC[C@H]1O[C@@](C#N)(c2ccc3c(N)ncnn23)[C@H](O)[C@@H]1O)Oc1ccccc1` [remdesivir], the activation at 10 µM on 348 GPCRs [1] (setting [19]) is -1.15%; at 348 GPCRs [2] (setting [20]), 6%; on 348 GPCRs [5] (setting [23]), -2.67%; at 348 GPCRs [7] (setting [25]) it was -0.224%; at 348 GPCRs [8] (setting [26]) it was -0.751%; on 348 GPCRs [9] (setting [27]) it was 0.527%. In addition, the activation at 100 µM at 348 GPCRs [3] (setting [21]) worked out at 4.84%; on 348 GPCRs [4] (setting [22]), 7.72%; on 348 GPCRs [6] (setting [24]), 2.91%.
